What was measured:
[1] = molecular target: Dual specificity protein kinase CLK1 (Homo sapiens, UniProt P49759); type: cell-based, Sf9
[2] = molecular target: Glycogen synthase kinase-3 beta (Homo sapiens, UniProt P49841); type: cell-based, Sf9
[3] = molecular target: T1, Dual specificity tyrosine-phosphorylation-regulated kinase 3 (Homo sapiens, UniProt O43781)
T1 sequence (O43781 whole entry): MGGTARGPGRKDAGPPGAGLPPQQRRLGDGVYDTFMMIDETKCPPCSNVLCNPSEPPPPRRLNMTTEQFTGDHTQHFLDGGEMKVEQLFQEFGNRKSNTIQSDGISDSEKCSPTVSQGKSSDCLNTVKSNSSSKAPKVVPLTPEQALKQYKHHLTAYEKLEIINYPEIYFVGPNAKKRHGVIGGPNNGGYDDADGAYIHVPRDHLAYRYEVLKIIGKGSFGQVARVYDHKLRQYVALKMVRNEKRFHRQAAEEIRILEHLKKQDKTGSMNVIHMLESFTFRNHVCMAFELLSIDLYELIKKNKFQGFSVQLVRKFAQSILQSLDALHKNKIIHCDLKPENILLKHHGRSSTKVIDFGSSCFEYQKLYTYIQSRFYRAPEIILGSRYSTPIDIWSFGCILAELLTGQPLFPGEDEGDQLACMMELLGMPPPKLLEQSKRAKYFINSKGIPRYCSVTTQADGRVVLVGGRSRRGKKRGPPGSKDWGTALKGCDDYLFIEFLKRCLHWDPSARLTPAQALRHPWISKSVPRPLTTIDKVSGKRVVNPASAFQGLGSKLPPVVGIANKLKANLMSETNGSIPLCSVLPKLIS

[4] = molecular target: Dual specificity protein kinase CLK3 (Homo sapiens, UniProt P49761); type: cell-based, Sf9
[5] = molecular target: Cyclin-dependent kinase 5/CDK5 activator 1 (Homo sapiens, UniProt Q00535); type: cell-based, Sf9
[6] = molecular target: Dual specificity tyrosine-phosphorylation-regulated kinase 1A (Homo sapiens, UniProt Q13627)
[7] = molecular target: T2, Dual specificity tyrosine-phosphorylation-regulated kinase 4 (Homo sapiens, UniProt Q9NR20)
T2 sequence (Q9NR20 whole entry): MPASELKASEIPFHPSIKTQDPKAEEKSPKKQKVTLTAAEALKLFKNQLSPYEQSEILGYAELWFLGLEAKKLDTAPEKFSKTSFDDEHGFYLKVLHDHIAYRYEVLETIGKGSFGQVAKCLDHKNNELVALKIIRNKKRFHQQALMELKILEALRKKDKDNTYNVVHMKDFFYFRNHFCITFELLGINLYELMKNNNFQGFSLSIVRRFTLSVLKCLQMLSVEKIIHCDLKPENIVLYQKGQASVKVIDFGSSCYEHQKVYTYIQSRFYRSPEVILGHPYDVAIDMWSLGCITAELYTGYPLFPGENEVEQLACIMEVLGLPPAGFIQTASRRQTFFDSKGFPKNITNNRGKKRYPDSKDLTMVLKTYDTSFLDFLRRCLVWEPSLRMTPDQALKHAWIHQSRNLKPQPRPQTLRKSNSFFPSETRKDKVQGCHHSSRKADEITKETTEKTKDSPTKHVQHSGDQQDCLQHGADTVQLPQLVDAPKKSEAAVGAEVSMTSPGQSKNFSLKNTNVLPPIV

[8] = molecular target: Casein kinase I isoform epsilon (Homo sapiens, UniProt P49674)
[9] = molecular target: Dual specificity protein kinase CLK2 (Homo sapiens, UniProt P49760)
[10] = molecular target: T3, Dual specificity tyrosine-phosphorylation-regulated kinase 2 (Homo sapiens, UniProt Q92630)
T3 sequence (Q92630 whole entry): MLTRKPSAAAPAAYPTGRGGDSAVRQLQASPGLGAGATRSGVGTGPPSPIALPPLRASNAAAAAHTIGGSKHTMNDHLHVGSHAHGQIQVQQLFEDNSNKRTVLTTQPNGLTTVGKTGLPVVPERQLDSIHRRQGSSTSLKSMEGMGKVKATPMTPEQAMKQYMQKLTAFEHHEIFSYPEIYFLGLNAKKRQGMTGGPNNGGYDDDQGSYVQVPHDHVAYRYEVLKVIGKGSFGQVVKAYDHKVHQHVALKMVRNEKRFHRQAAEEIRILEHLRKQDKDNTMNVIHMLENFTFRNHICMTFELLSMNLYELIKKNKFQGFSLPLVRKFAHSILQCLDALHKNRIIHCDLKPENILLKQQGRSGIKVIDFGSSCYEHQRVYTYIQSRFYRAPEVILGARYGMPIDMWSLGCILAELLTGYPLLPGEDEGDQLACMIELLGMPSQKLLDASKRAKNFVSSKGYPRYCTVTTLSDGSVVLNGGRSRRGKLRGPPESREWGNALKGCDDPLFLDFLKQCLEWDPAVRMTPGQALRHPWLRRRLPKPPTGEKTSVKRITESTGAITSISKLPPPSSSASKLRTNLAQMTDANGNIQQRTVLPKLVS

[11] = molecular target: Dual specificity protein kinase CLK4 (Homo sapiens, UniProt Q9HAZ1)
Sequence of Dual specificity protein kinase CLK4 (Q9HAZ1 whole entry): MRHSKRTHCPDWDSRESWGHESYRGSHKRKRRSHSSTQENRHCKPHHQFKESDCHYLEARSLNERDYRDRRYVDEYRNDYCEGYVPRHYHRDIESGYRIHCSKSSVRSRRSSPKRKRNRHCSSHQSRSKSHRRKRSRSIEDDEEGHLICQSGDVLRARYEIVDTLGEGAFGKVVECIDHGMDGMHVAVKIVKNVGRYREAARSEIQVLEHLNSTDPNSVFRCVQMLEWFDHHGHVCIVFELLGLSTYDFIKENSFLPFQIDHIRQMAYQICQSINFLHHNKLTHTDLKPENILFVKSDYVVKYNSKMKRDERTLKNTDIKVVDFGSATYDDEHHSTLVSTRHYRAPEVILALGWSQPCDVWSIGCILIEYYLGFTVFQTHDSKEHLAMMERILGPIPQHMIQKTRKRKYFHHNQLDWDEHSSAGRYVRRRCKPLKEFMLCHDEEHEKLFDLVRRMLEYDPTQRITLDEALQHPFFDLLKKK

Sequence of Dual specificity protein kinase CLK1 (P49759 whole entry): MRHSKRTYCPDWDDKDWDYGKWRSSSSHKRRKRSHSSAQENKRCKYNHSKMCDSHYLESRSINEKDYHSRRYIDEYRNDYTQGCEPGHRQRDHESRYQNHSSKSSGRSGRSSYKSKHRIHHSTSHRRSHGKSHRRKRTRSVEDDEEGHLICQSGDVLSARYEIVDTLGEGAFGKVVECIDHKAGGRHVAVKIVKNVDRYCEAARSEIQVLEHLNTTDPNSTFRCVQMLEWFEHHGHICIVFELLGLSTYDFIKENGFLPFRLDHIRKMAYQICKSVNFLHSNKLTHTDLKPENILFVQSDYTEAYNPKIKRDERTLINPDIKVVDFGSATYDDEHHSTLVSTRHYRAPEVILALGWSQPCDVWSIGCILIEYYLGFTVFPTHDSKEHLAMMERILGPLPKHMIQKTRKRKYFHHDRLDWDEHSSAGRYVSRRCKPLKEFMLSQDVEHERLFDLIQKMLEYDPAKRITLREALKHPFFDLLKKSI
Sequence of Casein kinase I isoform epsilon (P49674 whole entry, canonical isoform): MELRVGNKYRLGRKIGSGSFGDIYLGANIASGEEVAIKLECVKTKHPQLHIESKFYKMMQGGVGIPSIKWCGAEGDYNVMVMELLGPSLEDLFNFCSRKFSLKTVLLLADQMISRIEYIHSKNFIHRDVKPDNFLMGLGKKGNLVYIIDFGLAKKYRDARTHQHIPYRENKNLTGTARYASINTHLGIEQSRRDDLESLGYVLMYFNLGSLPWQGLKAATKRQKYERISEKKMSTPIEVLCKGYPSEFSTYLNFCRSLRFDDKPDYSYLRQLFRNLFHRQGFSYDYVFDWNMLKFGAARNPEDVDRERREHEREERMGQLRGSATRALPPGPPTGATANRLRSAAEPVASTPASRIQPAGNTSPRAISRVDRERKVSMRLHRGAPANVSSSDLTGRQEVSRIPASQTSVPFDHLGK
Sequence of Dual specificity protein kinase CLK3 (P49761 whole entry): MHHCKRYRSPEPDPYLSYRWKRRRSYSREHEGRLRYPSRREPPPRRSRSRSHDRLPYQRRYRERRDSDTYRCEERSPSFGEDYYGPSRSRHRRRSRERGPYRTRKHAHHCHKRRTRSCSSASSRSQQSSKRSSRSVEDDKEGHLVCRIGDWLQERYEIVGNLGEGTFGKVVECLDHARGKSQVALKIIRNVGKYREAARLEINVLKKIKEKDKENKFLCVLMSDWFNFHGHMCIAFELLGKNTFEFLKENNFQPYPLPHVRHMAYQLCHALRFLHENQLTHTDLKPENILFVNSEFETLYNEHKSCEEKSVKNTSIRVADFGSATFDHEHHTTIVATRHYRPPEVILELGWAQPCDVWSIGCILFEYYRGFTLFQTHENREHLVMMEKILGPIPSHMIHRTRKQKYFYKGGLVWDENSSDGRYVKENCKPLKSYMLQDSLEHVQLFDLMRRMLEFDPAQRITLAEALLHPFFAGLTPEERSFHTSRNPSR
Sequence of Cyclin-dependent kinase 5/CDK5 activator 1 (Q00535 whole entry): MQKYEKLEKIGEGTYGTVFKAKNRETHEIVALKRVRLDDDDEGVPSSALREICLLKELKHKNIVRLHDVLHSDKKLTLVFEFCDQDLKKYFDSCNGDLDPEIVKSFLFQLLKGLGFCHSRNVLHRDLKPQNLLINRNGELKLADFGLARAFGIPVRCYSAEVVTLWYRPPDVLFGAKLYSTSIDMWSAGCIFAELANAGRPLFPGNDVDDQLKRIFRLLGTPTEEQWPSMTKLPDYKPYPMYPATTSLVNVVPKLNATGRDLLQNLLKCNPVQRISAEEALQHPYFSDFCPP
Sequence of Cyclin-dependent kinase 5/CDK5 activator 1 (Q15078 whole entry, further chain): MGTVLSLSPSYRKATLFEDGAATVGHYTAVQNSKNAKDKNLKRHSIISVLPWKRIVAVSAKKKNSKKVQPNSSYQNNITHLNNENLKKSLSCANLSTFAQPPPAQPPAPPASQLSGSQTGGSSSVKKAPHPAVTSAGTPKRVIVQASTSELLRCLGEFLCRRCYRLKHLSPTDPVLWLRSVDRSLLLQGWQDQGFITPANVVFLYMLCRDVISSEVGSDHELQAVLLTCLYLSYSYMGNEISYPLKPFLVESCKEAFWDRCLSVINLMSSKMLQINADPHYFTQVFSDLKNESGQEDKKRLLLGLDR
Sequence of Glycogen synthase kinase-3 beta (P49841 whole entry): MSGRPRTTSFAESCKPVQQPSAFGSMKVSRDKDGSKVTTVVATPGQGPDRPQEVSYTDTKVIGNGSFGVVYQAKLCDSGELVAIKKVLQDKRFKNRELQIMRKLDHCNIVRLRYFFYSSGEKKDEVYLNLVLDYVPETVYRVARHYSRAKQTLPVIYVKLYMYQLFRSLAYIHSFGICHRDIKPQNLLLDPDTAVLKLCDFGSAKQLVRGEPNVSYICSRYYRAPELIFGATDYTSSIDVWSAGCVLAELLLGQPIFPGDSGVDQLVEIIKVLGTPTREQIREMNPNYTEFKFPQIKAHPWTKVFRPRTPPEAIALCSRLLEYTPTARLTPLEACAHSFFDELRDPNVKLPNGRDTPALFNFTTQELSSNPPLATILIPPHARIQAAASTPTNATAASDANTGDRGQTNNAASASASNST
Sequence of Dual specificity protein kinase CLK2 (P49760 whole entry): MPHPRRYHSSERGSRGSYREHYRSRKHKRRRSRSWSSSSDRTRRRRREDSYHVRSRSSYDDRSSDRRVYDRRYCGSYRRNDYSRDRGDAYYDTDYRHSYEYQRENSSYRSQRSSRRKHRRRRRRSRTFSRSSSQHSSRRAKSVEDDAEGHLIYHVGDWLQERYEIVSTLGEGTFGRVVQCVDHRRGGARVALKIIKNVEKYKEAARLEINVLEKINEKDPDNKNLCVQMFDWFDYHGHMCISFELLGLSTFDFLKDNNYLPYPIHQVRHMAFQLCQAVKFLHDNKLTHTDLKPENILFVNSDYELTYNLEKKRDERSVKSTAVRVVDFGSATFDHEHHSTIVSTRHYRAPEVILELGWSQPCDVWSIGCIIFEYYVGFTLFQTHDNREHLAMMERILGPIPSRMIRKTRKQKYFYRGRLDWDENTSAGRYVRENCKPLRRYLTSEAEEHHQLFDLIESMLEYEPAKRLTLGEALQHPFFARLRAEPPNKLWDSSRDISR

Row | IC50 [1] [µM] | IC50 [2] [µM] | IC50 [3] [µM] | IC50 [4] [µM] | IC50 [5] [µM] | IC50 [6] [µM] | IC50 [7] [µM] | IC50 [8] [µM] | IC50 [9] [µM] | IC50 [10] [µM] | IC50 [11] [µM] | Structure (SMILES)
1 | 0.004 | > 10 | 0.04 | > 10 | > 10 | 0.002 | 4.3 | > 10 | – | – | – | Cn1cc2cc(/C=C3\N=C(NC45CC6CC(CC(C6)C4)C5)NC3=O)ccc2n1
2 | 0.031 | > 10 | – | 1.55 | > 10 | 0.098 | 0.865 | – | 0.507 | 2.19 | 0.008 | O=C1NC(NC2CCCCCC2)=N/C1=C\c1ccc2[nH]cnc2c1
3 | 0.021 | 7.06 | 0.482 | 0.787 | 6.71 | – | 0.663 | 9.75 | – | 0.627 | 0.012 | O=C1NC(NC2CCCCC2)=N/C1=C\c1ccc2ncsc2c1
4 | 0.023 | 1.2 | 0.12 | 0.8 | – | – | – | – | 0.035 | – | 0.016 | CN1CCN(c2ccc(NC3=N/C(=C\c4ccc5c(c4)OCO5)C(=O)N3)cc2)CC1
5 | 0.017 | > 10 | 0.758 | 0.804 | 8.7 | 0.067 | 1.04 | > 10 | 0.102 | 1.49 | – | Cn1cnc2ccc(/C=C3\N=C(NC4CCCCCC4)NC3=O)cc21
6 | 0.013 | 2.22 | 0.71 | 0.698 | > 10 | – | – | > 10 | 0.113 | – | 0.005 | O=C1NC(Nc2ccccc2)=N/C1=C\c1ccc2ncsc2c1
7 | 0.541 | > 10 | – | 0.794 | > 10 | 0.263 | > 10 | > 10 | 2.35 | – | – | O=C1NC(NC2CCCCC2)=N/C1=C\c1ccc2[nH]ncc2c1
8 | 0.139 | 3.95 | – | 0.266 | > 10 | 0.033 | – | > 10 | 0.725 | 1.87 | 0.112 | O=C1NC(NC2CCCCCC2)=N/C1=C\c1ccc2[nH]ncc2c1
9 | 0.951 | > 10 | 4.13 | 4.53 | > 10 | 0.57 | > 10 | > 10 | 6.33 | 3.7 | – | Cn1cc2cc(/C=C3\N=C(NC4CCCCC4)NC3=O)ccc2n1
10 | 0.024 | > 10 | 4.17 | > 10 | > 10 | – | 4.89 | > 10 | 1.46 | > 10 | 0.009 | O=C1NC(NC2CCCCCC2)=N/C1=C\c1ccc2c(c1)CCO2
11 | 2.51 | > 10 | – | 1.71 | > 10 | 0.141 | > 10 | > 10 | 7.77 | 2.54 | 0.649 | Cn1ncc2cc(/C=C3\N=C(NC4CCCCC4)NC3=O)ccc21
12 | 0.034 | > 10 | > 10 | 2.87 | > 10 | – | > 10 | – | 0.124 | > 10 | 0.037 | O=C1NC(NCc2ccccc2OC(F)(F)F)=N/C1=C\c1ccc2ncsc2c1
13 | 0.22 | 5.19 | 5.43 | 5.7 | > 10 | – | 2.67 | > 10 | 2.23 | 0.946 | 0.086 | CC(C)C[C@H](COCc1ccccc1)NC1=N/C(=C\c2ccc3ncsc3c2)C(=O)N1
14 | > 10 | > 10 | > 10 | > 10 | > 10 | – | – | > 10 | > 10 | > 10 | 8.17 | O=C1NC(NC2CCCCCC2)=N/C1=C\c1ccc2scnc2c1
15 | 0.017 | > 10 | – | > 10 | > 10 | 0.002 | 1.64 | > 10 | 0.096 | 0.183 | 0.004 | O=C1NC(NC23CC4CC(CC(C4)C2)C3)=N/C1=C\c1ccc2c(c1)OCO2
16 | 1.24 | > 10 | – | 0.381 | > 10 | 0.037 | 6.09 | > 10 | > 10 | 1.58 | 0.43 | Cn1ncc2cc(/C=C3\N=C(NC4CCCCCC4)NC3=O)ccc21
17 | 0.02 | > 10 | – | 1.08 | > 10 | 0.093 | 1.11 | – | – | 1.47 | 0.008 | Cn1cnc2ccc(/C=C3\N=C(NC4CCCCC4)NC3=O)cc21
18 | 0.142 | > 10 | 0.307 | 2.22 | > 10 | – | 1.63 | > 10 | 4 | 0.363 | 0.125 | Cn1ncc2cc(/C=C3\N=C(NC45CC6CC(CC(C6)C4)C5)NC3=O)ccc21
19 | – | 6.03 | 0.302 | 0.92 | > 10 | 0.003 | 0.699 | > 10 | 0.02 | 0.513 | 0.003 | COC(=O)[C@@H](NC1=N/C(=C\c2ccc3ncsc3c2)C(=O)N1)C(C)O (stereo not given in full)
20 | 0.067 | > 10 | 1.03 | 1.41 | > 10 | – | 3.02 | > 10 | 2.18 | 1.5 | 0.055 | Cn1cc2cc(/C=C3\N=C(NC4CCCCCC4)NC3=O)ccc2n1
21 | 0.017 | 3.6 | – | 0.211 | > 10 | – | 1.38 | > 10 | 0.121 | 0.125 | 0.005 | CC(C)C[C@H](COC1CC1)NC1=N/C(=C\c2ccc3ncsc3c2)C(=O)N1
22 | 0.005 | > 10 | – | 7.57 | > 10 | 0.002 | 0.218 | – | 0.002 | 0.051 | 0.002 | O=C1NC(NC23CC4CC(CC(C4)C2)C3)=N/C1=C\c1ccc2[nH]cnc2c1
23 | 0.852 | > 10 | > 10 | 8.82 | > 10 | – | > 10 | – | 5.58 | > 10 | 0.392 | O=C1NC(NC2CCCCC2)=N/C1=C\c1ccc2nnsc2c1

Reference: ChEMBL document CHEMBL5360622, “Leucettinibs, a Class of DYRK/CLK Kinase Inhibitors Inspired by the Marine Sponge Natural Product Leucettamine B” (J Med Chem, 2023)
